How the values were obtained:
Test in all cases: receptor-ligand binding
m5-HT3 = target: T1, m5-HT3 (Mus musculus, UniProt P23979); conditions: given as a range
T1 sequence (P23979 24-489): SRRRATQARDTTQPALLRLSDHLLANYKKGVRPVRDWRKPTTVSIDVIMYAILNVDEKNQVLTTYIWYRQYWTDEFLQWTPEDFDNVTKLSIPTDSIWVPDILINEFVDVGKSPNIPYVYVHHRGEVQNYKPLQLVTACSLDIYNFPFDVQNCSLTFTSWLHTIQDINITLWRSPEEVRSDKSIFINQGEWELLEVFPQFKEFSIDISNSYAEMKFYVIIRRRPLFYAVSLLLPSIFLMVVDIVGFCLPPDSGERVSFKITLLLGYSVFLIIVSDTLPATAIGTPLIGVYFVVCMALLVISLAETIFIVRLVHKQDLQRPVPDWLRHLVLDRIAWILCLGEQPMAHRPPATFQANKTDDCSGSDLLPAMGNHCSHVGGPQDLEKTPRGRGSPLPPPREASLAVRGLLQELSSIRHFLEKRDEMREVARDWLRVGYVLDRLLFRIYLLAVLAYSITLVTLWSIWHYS

Rat D2 = Rat D2 (Rattus norvegicus, UniProt P61169); conditions: read-out: Ki (μM) / Rat D2
Chain of Rat D2 (P61169 whole entry): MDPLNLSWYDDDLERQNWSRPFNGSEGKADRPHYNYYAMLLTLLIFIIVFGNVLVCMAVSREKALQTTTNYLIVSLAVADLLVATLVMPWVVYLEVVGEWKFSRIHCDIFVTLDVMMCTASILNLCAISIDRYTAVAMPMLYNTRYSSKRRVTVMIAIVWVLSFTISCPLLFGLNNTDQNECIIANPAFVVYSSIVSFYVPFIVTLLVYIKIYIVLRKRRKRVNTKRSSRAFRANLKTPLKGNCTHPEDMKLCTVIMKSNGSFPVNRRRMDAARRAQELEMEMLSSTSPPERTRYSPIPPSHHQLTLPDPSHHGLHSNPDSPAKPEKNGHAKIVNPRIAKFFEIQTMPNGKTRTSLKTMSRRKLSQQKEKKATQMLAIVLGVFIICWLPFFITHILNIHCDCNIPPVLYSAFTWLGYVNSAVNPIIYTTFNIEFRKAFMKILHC

5-HT2A = 5-HT2A (Homo sapiens, UniProt P28223)
Chain of 5-HT2A (P28223 whole entry): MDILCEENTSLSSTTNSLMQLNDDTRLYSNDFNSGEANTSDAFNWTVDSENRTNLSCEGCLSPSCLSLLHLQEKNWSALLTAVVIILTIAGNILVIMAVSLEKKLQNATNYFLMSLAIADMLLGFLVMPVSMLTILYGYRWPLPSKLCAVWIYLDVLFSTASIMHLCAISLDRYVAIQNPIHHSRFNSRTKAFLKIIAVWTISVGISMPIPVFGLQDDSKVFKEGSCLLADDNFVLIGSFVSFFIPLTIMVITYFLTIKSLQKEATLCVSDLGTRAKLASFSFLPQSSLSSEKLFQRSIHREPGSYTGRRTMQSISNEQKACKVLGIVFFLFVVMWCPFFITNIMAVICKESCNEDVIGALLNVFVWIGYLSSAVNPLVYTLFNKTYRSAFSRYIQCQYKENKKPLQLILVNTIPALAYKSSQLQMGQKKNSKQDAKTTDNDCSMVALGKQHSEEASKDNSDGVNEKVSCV

5-HT2C = target: T2, 5-HT2C (Homo sapiens, UniProt P28335)
T2 sequence (P28335 33-458): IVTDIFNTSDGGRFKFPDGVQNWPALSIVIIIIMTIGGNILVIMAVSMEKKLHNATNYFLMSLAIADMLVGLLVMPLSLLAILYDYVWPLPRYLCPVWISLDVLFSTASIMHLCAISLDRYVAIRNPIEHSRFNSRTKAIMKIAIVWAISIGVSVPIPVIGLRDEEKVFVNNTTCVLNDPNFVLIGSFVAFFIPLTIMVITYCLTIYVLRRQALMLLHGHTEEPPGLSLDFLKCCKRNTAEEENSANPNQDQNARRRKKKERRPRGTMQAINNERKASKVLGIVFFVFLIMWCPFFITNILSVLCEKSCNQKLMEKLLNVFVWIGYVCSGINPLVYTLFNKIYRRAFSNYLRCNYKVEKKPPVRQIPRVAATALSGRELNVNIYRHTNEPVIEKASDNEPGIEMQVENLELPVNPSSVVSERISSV

hD4 = target: T3, hD4 (Homo sapiens, UniProt P21917); conditions: given as a range
T3 sequence (P21917 1-419): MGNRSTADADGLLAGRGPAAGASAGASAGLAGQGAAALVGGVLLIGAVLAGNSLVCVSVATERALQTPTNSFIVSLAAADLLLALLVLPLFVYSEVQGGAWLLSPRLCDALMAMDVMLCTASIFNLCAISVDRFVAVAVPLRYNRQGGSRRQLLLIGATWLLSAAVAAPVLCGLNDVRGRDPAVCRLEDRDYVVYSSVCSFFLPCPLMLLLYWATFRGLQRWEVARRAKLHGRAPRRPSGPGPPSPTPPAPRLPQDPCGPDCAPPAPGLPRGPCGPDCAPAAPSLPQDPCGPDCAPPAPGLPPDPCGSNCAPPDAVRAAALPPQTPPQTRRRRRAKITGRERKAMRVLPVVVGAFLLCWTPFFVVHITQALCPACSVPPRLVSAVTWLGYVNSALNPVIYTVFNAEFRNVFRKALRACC

Human D2 = Human D2 (Homo sapiens, UniProt P14416); conditions: read-out: Ki (μM) / Human D2
Chain of Human D2 (P14416 whole entry): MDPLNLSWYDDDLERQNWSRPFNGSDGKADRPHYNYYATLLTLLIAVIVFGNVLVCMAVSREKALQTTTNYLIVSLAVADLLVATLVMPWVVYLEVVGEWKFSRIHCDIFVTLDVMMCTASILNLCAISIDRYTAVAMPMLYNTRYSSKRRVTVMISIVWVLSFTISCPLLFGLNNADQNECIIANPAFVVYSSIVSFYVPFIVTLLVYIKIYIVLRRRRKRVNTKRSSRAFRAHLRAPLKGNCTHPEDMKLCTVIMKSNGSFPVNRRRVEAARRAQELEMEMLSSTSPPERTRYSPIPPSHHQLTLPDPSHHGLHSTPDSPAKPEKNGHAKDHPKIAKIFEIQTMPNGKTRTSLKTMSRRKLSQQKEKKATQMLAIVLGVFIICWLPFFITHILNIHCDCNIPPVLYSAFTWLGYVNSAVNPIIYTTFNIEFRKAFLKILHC

h5-HT4B = h5-HT4B (Homo sapiens, UniProt Q13639)
Chain of h5-HT4B (Q13639 whole entry): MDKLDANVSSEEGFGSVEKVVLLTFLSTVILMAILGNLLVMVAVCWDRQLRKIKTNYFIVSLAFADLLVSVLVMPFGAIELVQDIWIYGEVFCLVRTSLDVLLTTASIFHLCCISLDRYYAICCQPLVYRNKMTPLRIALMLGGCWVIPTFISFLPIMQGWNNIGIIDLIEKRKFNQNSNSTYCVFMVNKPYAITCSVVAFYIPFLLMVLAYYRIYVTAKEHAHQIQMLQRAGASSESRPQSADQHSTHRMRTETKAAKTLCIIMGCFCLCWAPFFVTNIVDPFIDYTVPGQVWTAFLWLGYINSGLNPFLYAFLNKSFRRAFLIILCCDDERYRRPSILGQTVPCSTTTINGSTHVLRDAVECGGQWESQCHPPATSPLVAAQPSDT

5-HT2B = 5-HT2B (Homo sapiens, UniProt P41595)
Chain of 5-HT2B (P41595 whole entry): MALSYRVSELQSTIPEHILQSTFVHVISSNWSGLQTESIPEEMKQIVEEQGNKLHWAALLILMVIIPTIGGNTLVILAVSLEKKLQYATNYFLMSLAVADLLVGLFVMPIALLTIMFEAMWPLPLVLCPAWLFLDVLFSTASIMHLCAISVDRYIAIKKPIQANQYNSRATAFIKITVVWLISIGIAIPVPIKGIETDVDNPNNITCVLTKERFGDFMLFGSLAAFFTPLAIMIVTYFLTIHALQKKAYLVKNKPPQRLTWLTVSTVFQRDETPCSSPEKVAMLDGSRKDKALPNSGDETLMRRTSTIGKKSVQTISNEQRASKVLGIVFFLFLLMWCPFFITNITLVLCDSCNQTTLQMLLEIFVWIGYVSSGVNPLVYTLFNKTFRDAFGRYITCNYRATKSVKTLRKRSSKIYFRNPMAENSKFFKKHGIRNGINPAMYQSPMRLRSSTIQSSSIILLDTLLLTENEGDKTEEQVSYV

| SMILES | Ki (m5-HT3) | Ki (Rat D2) | Ki (5-HT2A) | Ki (5-HT2C) | Ki (hD4) | Ki (Human D2) | Ki (h5-HT4B) | Ki (5-HT2B) |
| --- | --- | --- | --- | --- | --- | --- | --- | --- |
| COCCCN1CCC(NC(=O)c2cc(Cl)c(N)c3c2OCC3)CC1 [Prucalopride] | 3.5 to 3.8 µM | 6 µM | 30 µM | 41 µM | 1.6 to 2.4 µM | 14 µM |  |  |
| Nc1c(Cl)cc(C(=O)NC2CCN(CCC(=O)O)CC2)c2c1CCO2 [R107504] |  | 138 µM | 136 µM | 211 µM |  | 235 µM | 0.074 µM | 10 µM |

From article PMC9983627 (Drugs in Context, 2023)
